Patent US7582797B2, “Derivatives of 4,4′-dithiobis-(3-aminobutane-1-sulfonates) and compositions comprising the same” (Institute National de la Sante et de la Recherche Medicale …, priority 2003, dated 2009)

Target: T1, recombinant aminopeptidase A (UniProt P16406)
T1 sequence (P16406 1-945): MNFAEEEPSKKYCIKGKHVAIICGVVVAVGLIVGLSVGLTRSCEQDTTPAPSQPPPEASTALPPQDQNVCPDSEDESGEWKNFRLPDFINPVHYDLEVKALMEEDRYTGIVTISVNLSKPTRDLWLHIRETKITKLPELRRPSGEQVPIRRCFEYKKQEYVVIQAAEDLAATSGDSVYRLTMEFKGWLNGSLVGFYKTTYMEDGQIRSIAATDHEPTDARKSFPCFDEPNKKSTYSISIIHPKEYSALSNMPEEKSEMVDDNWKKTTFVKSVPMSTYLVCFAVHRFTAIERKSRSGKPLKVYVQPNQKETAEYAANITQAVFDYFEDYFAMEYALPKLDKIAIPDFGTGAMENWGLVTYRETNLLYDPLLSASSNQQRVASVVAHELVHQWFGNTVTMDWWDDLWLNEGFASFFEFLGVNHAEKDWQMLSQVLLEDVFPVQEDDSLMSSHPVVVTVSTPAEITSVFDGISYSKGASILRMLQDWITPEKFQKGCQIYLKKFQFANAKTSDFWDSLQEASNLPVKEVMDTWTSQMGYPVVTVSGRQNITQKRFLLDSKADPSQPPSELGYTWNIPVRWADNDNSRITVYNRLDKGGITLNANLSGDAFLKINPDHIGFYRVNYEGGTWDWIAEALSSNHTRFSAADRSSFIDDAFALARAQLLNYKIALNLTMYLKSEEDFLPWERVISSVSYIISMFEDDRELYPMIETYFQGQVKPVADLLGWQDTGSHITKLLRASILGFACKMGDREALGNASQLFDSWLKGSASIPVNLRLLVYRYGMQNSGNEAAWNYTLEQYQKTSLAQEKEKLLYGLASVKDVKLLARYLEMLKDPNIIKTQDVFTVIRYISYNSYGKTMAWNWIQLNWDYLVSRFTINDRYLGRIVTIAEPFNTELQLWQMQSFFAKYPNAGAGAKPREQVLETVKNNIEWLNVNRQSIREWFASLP
Assay: Determination of the inhibition constants with respect to APA (GluβNa hydrolysis, microplate assay)
Assay type: biochemical
Conditions: for Ki: recombinant APA, 200 μM GluβNa, pH 7.4 Tris-HCl, 4 mM CaCl2, 37° C.
Experimental: The compounds 5 were tested, in vitro, on recombinant aminopeptidase A in order to determine their affinity for APA.
The assaying of APA activity is based on the protocol of Goldberg, adapted to the microplate assay scale (Pro Bind® 3915) (Chauvel et al., J. Med. Chem., 1994, 37, 1339-1346).
In vitro, in the presence of calcium ions, APA hydrolyzes α-L-glutamyl-β-naphthylamide (gluβNa) to glutamate and β-naphthylamine (βNa). A diazotization reaction in an acidic medium makes it possible to visualize the β-naphthylamine by formation of a violet-colored complex: spectrophotometric measurement then makes it possible to determine the amount of complex formed and, by reference to a standard curve produced with increasing concentrations of β-naphthylamine, to deduce therefrom the enzymatic activity of the sample.
The GluβNa substrate and the β-naphthylamine (Bachem) are solubilized in dimethyl sulfoxide and 0.1N HCl, respectively, and conserved at −20° C. at a concentration of 10^−2M. The diazotization reaction is carried out in the presence of sodium nitrite (87 mM), of ammonium sulfamate (130 mM) and of N-(1-naphthyl)ethylenediamine dihydrochloride (23 mM).
The reaction takes place at pH 7.4 in 50 mM Tris-HCl buffer, in the presence of calcium (4 mM CaCl2); the sample to be assayed is incubated at 37° C. in the presence of a substrate (200 μM GluβNa) and in the presence or absence of various concentrations of the inhibitor to be tested, in a final volume of 100 μl. The reaction is stopped by the addition of 10 μl of 3N HCl. A standard curve for β-naphthylamine in an acidic medium (addition of 10 μl of 0.1N HCl) is produced in parallel.
The following are added to each well:
25 μl of sodium nitrite (mix, wait 5 min at ambient temperature),
50 μl of ammonium sulfamate (stir, wait 5 min at ambient temperature), then
25 μl of 23 mM N-(1-naphthyl)ethylenediamine dihydrochloride (mix, wait for the violet color to stabilize for approximately 30 min at 37° C.).
The absorbance is subsequently measured at 540 nm.
The compound EC 33 ((S)-3-amino-4-mercaptobutylsulfonic acid) described in application WO 99/36066), a monomer of the compound RB 150 (4,4′-dithiobis-3-aminobutane-1-sulfonic acid) described in application WO 2004/007441, was used as a reference compound.

COc1ccccc1CCC(S)C(N)CCS(=O)(=O)O (stereo not shown) [Compound 5g, 3-Amino-4-mercapto-6-(2-methoxyphenyl)hexane-1-sulfonic acid]
Ki: 0.096 µM
inhibitory activity compared with the reference compound (EC 33) (relative to EC 33): of the same order as or greater than that of the reference compound

N[C@H](CS)CCS(=O)(=O)O [EC 33, (S)-3-amino-4-mercaptobutylsulfonic acid, reference compound]
Ki: 0.304 µM

CC(S)C(N)CCS(=O)(=O)O (stereo not shown) [Compound 5a, 3-Amino-4-mercaptopentane-1-sulfonic acid]
Ki: > 100 µM

NC(CCS(=O)(=O)O)C(S)Cc1ccccc1 (stereo not shown) [Compound 5d, 3-Amino-4-mercapto-5-phenylpentane-1-sulfonic acid]
Ki: 0.38 µM
inhibitory activity compared with the reference compound (EC 33) (relative to EC 33): of the same order as or greater than that of the reference compound

N[C@H](CCS(=O)(=O)O)[C@H](S)CCc1ccccc1 [Compound 5e4, (3R,4R)-3-Amino-4-mercapto-6-phenylhexane-1-sulfonic acid]
Ki: 0.84 µM

NC(CCS(=O)(=O)O)C(S)CCc1ccccc1 (stereo not shown) [Compound 5e, 3-Amino-4-mercapto-6-phenylhexane-1-sulfonic acid]
Ki: 0.08 µM
inhibitory activity compared with the reference compound (EC 33) (relative to EC 33): of the same order as or greater than that of the reference compound

CC(C)CC(S)C(N)CCS(=O)(=O)O (stereo not shown) [Compound 5c, 3-Amino-4-mercapto-6-methylheptane-1-sulfonic acid]
Ki: 4 µM

N[C@@H](CCS(=O)(=O)O)[C@@H](S)CCc1ccccc1 [Compound 5e2, (3S,4S)-3-Amino-4-mercapto-6-phenylhexane-1-sulfonic acid]
Ki: 0.03 µM
APA-inhibiting activity greater than that of the reference compound (EC 33) by a factor (relative to EC 33): 10

NC(CCS(=O)(=O)O)C(S)c1ccccc1 (stereo not shown) [Compound 5b, 3-Amino-4-mercapto-4-phenylbutane-1-sulfonic acid]
Ki: 8 µM

COc1ccc(CCC(S)C(N)CCS(=O)(=O)O)cc1 (stereo not shown) [Compound 5f, 3-Amino-4-mercapto-6-(4-methoxyphenyl)hexane-1-sulfonic acid]
Ki: 0.092 µM
inhibitory activity compared with the reference compound (EC 33) (relative to EC 33): of the same order as or greater than that of the reference compound

N[C@@H](CCS(=O)(=O)O)[C@H](S)CCc1ccccc1 [Compound 5e3, (3S,4R)-3-Amino-4-mercapto-6-phenylhexane-1-sulfonic acid]
Ki: 1.04 µM

N[C@H](CCS(=O)(=O)O)[C@@H](S)CCc1ccccc1 [Compound 5e1, (3R,4S)-3-Amino-4-mercapto-6-phenylhexane-1-sulfonic acid]
Ki: 1.92 µM

NC(CCS(=O)(=O)O)C(S)CCc1ccc(Br)cc1 (stereo not shown) [Compound 5h, 3-Amino-4-mercapto-6-(4-bromophenyl)hexane-1-sulfonic acid]
Ki: 0.11 µM
inhibitory activity compared with the reference compound (EC 33) (relative to EC 33): of the same order as or greater than that of the reference compound
